{"source": "patent US20130108562A1", "about": "“Cosmetic Composition Containing Oligopeptides” (Cognis IP Management GmbH, priority 2010, published 2013)", "key": {"[1]": {"test_system": "collagen type XIV gene (COL14A1)", "experiment": "COL14A1 mRNA level by qRT-PCR in human dermal fibroblasts", "type": "cell-based", "conditions": "summary of Table 2", "description": "The peptide Acetyl-Val-Leu-Leu-Lys was incubated on human dermal fibroblasts cultured in vitro and the expression of the collagen type XIV gene (COL14A1) was measured using a quantitative reverse-transcription and polymerase chain reaction (qRT-PCR) method.\n(§1) The human dermal fibroblasts were cultured within growth medium enriched with FCS at 10% and incubated for 1 day at 37° C. Then the growth medium was exchanged for a standard medium without FCS but with or without the Acetyl-Val-Leu-Leu-Lys peptide at 1.0 μg/ml. Cells were then incubated for 24 hours, 48 hours or 72 hours at 37° C. before extraction of total RNA. The level of COL14A1 mRNAs in the different conditions was evaluated comparatively to the level of EEF1A1 mRNA as housekeeping gene (qRT-PCR method) for each condition.\nThe results were calculated through the level of COL14A1 mRNA measured in the control condition (without peptide treatment) for the different incubation times as 100% and presented as a mean+/−SEM from 3 or 5 assays in duplicate."}, "collagen type I": {"test_system": "collagen type I", "experiment": "Collagen type I expression by immunocytochemistry in human dermal fibroblasts", "type": "cell-based", "description": "The peptide Acetyl-Val-Leu-Leu-Lys was incubated on human dermal fibroblasts cultured in vitro and the expression of the collagen type I was measured using an immunocytochemistry (ICC) method.\nThe human dermal fibroblasts were cultured within growth medium enriched with Foetal Calf Serum (FCS) at 10% and incubated for 2 days at 37° C. Then the growth medium was exchanged for a standard medium containing sodium ascorbyl at 5 μg/ml with FCS at 1% and with or without the Acetyl-Val-Leu-Leu-Lys peptide at 5.1 mg/ml. A positive control condition with sodium ascorbyl at 20 μg/ml was performed. Cells were incubated for 72 hours at 37° C. with the peptide. Cultured human dermal fibroblasts were fixed by acetone for 10 minutes at −20° C. and incubated for 1 hour at room temperature with a primary antibody against collagen type I [Abcam] diluted at 1/250. Fluorescein isothiocyanate (FITC) labelled secondary antibody [CliniSciences, France] was used for revelation. The obtained immuno-staining was observed using a confocal laser scanning microscope [TCS SPE, Leica, France] and quantified by an image analyzer [Quantimet Q5001W, Leica, France]. The staining occupation was evaluated. The results were presented as a mean+/−SEM (Standard Error of Mean) from 6 measures."}, "[2]": {"test_system": "glutaredoxin-2 gene (GLRX2)", "experiment": "GLRX2 mRNA level by qRT-PCR in human dermal fibroblasts", "type": "cell-based", "conditions": "summary of Table 4", "description": "The peptide Acetyl-Val-Leu-Leu-Lys was incubated on human dermal fibroblasts cultured in vitro and the expression of the glutaredoxin-2 gene (GLRX2), involved in cellular anti-oxidative defenses) was measured using a qRT-PCR method.\nas §1, with “FCS” for “FCS but”, “were” for “were then”, “6” for “24 hours, 48 hours or 72”, “GLRX2” for “COL14A1”, “mRNAs” for “mRNAs in the different conditions”, “HPRT1 (hypoxanthine phosphoribosyltransferase I)” for “EEF1A1”\nThe results were calculated through the level of GLRX2 mRNA measured in the control condition (without peptide treatment) as 100% and presented as a mean+/−SEM from 3 assays in duplicated."}, "tropoelastin gene (ELN)": {"test_system": "tropoelastin gene (ELN)", "experiment": "ELN mRNA level by qRT-PCR in human dermal fibroblasts", "type": "cell-based", "conditions": "summary of Table 3", "description": "The peptide Acetyl-Val-Leu-Leu-Lys was incubated on human dermal fibroblasts cultured in vitro and the expression of the tropoelastin gene (ELN) was measured using a qRT-PCR method.\nas §1, with “were” for “were then”, “ELN” for “COL14A1”, “EEF1A 1” for “EEF1A1”, “condition. The results were calculated through the level of ELN mRNA measured in the control condition (without peptide treatment) as 100% and presented as a mean+/−SEM from 3 assays in duplicate.” for “condition.”"}, "[3]": {"test_system": "epithelial cells from rabbit cornea", "conditions": "Hara et al., Exp Eye Res, 2001; cited from earlier work"}, "injured rabbit cornea": {"test_system": "injured rabbit cornea", "conditions": "Hara et al., Exp Eye Res, 2001; cited from earlier work"}}, "note": "Residues, ends and D or L forms follow the SMILES beside them.", "data": [{"compound": "CC(=O)N[C@H](C(=O)N[C@@H](CC(C)C)C(=O)N[C@@H](CC(C)C)C(=O)N[C@@H](CCCCN)C(=O)O)C(C)C", "note": "[Acetyl-Val-Leu-Leu-Lys, N-Acetyl-Val-Leu-Leu-Lys-OH] (Ac-VLLK-OH)", "values": [{"measurement": "effect on level of COL14A1 gene expression (in words)", "setting": "[1]", "result": "specifically and significantly increased the level of COL14A1 gene expression"}, {"measurement": "effect on level of collagen type I (in words)", "setting": "collagen type I; summary of Table 1", "result": "significantly increased the level of collagen type I"}, {"measurement": "effect on level of GLRX2 gene expression (in words)", "setting": "[2]", "result": "specifically increased the level of GLRX2 gene expression"}, {"measurement": "effect on level of ELN gene expression (in words)", "setting": "tropoelastin gene (ELN)", "result": "specifically and significantly increased the level of ELN gene expression"}]}, {"compound": "Val-Leu-Leu-His (VLLH; printed: Val-Leu-Leu-His)", "values": [{"measurement": "proliferation of epithelial cells from rabbit cornea (in words)", "setting": "[3]", "result": "stimulate proliferation of epithelial cells from rabbit cornea"}, {"measurement": "wound healing activity on injured rabbit cornea (in words)", "setting": "injured rabbit cornea", "result": "significant wound healing activity on injured rabbit cornea"}]}, {"compound": "sodium ascorbyl [reference compound]", "values": [{"measurement": "% of staining occupation (collagen type I immuno-staining)", "setting": "collagen type I; positive control at 20 μg/ml, 72 hours, human dermal fibroblasts, mean +/− SEM from 6 measures, control 10.68 +/− 1", "result": "18.01 +/− 1.07 (**) %"}]}]}
